# Columns and labels:
# [1] = microbe, parasite or virus in culture; conditions: Mycobacterium tuberculosis, 96 h, read-out: pIC50 (converted)
# [2] = microbe, parasite or virus in culture; conditions: Mycobacterium tuberculosis, 72 h, read-out: pIC50 (converted)
Compound,IC50 [1],IC50 [2]
Cc1ccc(CNc2ccccc2-n2ccc(C)n2)nc1,24.5 µM,> 50.1 µM
O=C(CCC(F)(F)F)N1CCCC(CO)(CC2CC2)C1 (centres undefined),4.11 µM,2.54 µM
CC(C)CC1CCN(S(N)(=O)=O)C1 (centres undefined),> 501 µM,> 501 µM
Nc1cc(=O)[nH]n1-c1ccc(C(F)(F)F)cn1,308 µM,197 µM
CC(NC(=O)CSc1nc(=O)[nH]n1C)c1cccs1 (centres undefined),234 µM,175 µM
COc1ccc(COCC(O)CN(C)c2ccc(C)cc2C)cc1 (centres undefined),16.8 µM,16 µM
COc1cccc(CN(C)C(=O)CSc2ccc3c(c2)OCCO3)c1,25 µM,> 50.1 µM
O=S(=O)(Cc1ccc(Br)cc1)NCCO,> 50.1 µM,> 50.1 µM
Cc1ccc(C(=O)NCC(=O)NC(C)(C)C)c(O)c1,> 501 µM,> 501 µM
O=S(=O)(c1ccco1)N1CCOCc2ccccc21,> 501 µM,291 µM
COC(=O)c1ccc(NCC(=O)NC(N)=O)cc1,58.3 µM,85.4 µM
COCc1ccccc1CNC(=O)c1nc(C)ns1,145 µM,488 µM
Cc1nc(CCN)cc(NC2CCC2)n1,> 501 µM,145 µM
N#Cc1nc(NCCSCCCO)ccc1Cl,418 µM,221 µM
O=C(Cc1ccc2c(c1)OCCO2)N1CCCC(n2ccnc2)C1 (centres undefined),> 50.1 µM,> 50.1 µM
O=C(CNC1CC1)NC[C@H]1CCc2ccccc2O1,156 µM,130 µM
O=C(Nc1nncs1)c1ccccn1,139 µM,36.5 µM
Cn1c(SCCCO)nnc1-c1ccccc1F,279 µM,275 µM
Cc1nn(C)c2ncnc(N(C)CC3CCN(CC(C)C)C3)c12 (centres undefined),> 50.1 µM,> 50.1 µM
NC(=O)C(N)c1ccc2c(c1)OCCO2 (centres undefined),> 501 µM,> 501 µM
O=C(c1ncoc1C1CC1)N1CCCN(CCCc2ccccc2)CC1,> 50.1 µM,> 50.1 µM
CN(C(=O)CN1CCCC1Cc1ccccc1)c1ccccc1 (centres undefined),> 50.1 µM,33 µM

Compound,IC50 [1],IC50 [2]
c1cnnc(N2CCCC2CNCc2nc3ccccc3o2)c1 (centres undefined),32.7 µM,29.6 µM
Cc1ccc(C(=O)N2CCC3(CCCCO3)CC2)cn1,> 501 µM,258 µM
Cc1cnn(CCNCCCOc2ccc3c(c2)OCO3)c1,13.6 µM,13.9 µM
CC(NC(=O)CSc1nnnn1C1CC1)c1cccs1 (centres undefined),> 501 µM,433 µM
CCCc1nc(C(=O)N2CC(c3ccncc3)C2)cs1,356 µM,326 µM
CN(CC(C)(CO)CO)c1ncc(Cl)cc1Cl,301 µM,122 µM
COc1cc(C(=O)NC[C@@H](O)c2ccc(C)cc2)on1,> 501 µM,488 µM
CCCOc1cc(C)ccc1NC(=O)Cn1cnnn1,> 501 µM,273 µM
CNc1nc(NCCS(C)(=O)=O)ncc1Br,> 501 µM,> 501 µM
CN(C)S(=O)(=O)NCC(O)c1ccc(Cl)c(F)c1 (centres undefined),> 501 µM,131 µM
Fc1ccc(NCC2CCC3(CC2)OCCO3)nc1,205 µM,264 µM
CCn1ncnc1CN1CC(Oc2ccccc2)C1,> 501 µM,151 µM
Cc1nc2c(c(N3CCC(CCn4cccn4)CC3)n1)CCNCC2,> 50.1 µM,> 50.1 µM
NCc1cc(N[C@H](CO)CC2CCCCC2)ncn1,> 501 µM,296 µM
Cc1cnn(CC2CCCN2Cc2ncc(-c3ccc(F)cc3)o2)c1 (centres undefined),> 50.1 µM,27 µM
CCOCCNC(=O)Nc1ccc(OCc2noc(C3CC3)n2)cc1,> 50.1 µM,> 50.1 µM
O=C(NC1=NCCS1)c1sccc1C1CC1,398 µM,232 µM
CC(N)C(=O)N1CCC(Oc2ccccc2Cl)CC1 (centres undefined),227 µM,288 µM
N#Cc1cc(Br)ccc1NCCC(=O)N1CCOCC1,> 501 µM,165 µM
CCOc1ccc(-c2cc(N)[nH]n2)cc1,> 501 µM,232 µM
Cc1nc(CN(C)C(=O)c2nc(C(C)C)cs2)no1,5.83 µM,71.2 µM
COc1ccc(C(=O)N2CCOC(Cc3cccc(C(F)(F)F)c3)C2)o1 (centres undefined),10.7 µM,35.1 µM

Compound,IC50 [1],IC50 [2]
O=C1CCC2(CCN(Cc3cscn3)CC2)CN1CCCO,> 50.1 µM,> 50.1 µM
COc1ccc(-c2noc(C3(O)CCCC3)n2)cn1,104 µM,282 µM
COCc1ccc(CNc2cnn(C(C)(C)C)c(=O)c2Cl)cc1,15.3 µM,> 50.1 µM
COc1cc(CNC(=O)C(C)OCC(C)C)ccn1 (centres undefined),> 501 µM,> 501 µM
NCc1cccc2cc[nH]c12,261 µM,245 µM
Clc1ccccc1CN1CCc2nc(C3CCNCC3)ncc2C1,> 50.1 µM,4.89 µM
Cn1c(-c2ccccc2Cl)nc2cc(C(=O)NC(CO)CO)cnc21,> 50.1 µM,> 50.1 µM
COc1cccc(CCC2CCCN(C(=O)c3ccc(OC)o3)C2)c1 (centres undefined),23 µM,27.7 µM
NS(=O)(=O)CC1CCN(c2ncc(Br)cn2)CC1,424 µM,286 µM
O=C(CCn1cccn1)N1CCc2sccc2C1,> 501 µM,117 µM
Cc1ccc(CCNC(=O)CSCCN2CCCC2)o1,> 501 µM,306 µM
O=C(CSc1ncccc1Br)N1CCCC1,70.3 µM,5.62 µM
c1cncc(-c2nc(SCC3CCCCO3)n[nH]2)c1 (centres undefined),> 501 µM,229 µM
CCn1nnc2c1C(COCC(=O)N(C)C)CN(Cc1ccoc1)C2 (centres undefined),> 50.1 µM,> 50.1 µM
NC(=O)c1cnc(NC2CCc3ccccc32)c(Cl)c1 (centres undefined),196 µM,199 µM
Cc1cnn(CC2CN(Cc3nc4ccccc4s3)CCO2)c1 (centres undefined),14.7 µM,34.7 µM
O=C(NCCN1CCCC1)c1ccc2ccccc2n1,249 µM,146 µM
O=S(=O)(CCN1CC[C@@H](O)C1)c1cccc(Br)c1,146 µM,112 µM
CC1(C)CNCCC(=O)C1,246 µM,259 µM
COCCOCCNC(=O)C(C)Oc1ccccc1C(F)(F)F (centres undefined),> 50.1 µM,> 50.1 µM
CCOCCC(=O)N1c2ccccc2OCC1C (centres undefined),> 501 µM,97.6 µM
O=C(Nc1cc(F)cc(F)c1)c1ccncc1,> 501 µM,224 µM

Compound,IC50 [1],IC50 [2]
CC(C)c1nnc(CNc2ccc(SC(F)(F)F)cc2)o1,18.9 µM,19.3 µM
Cc1ccc(C(CN)N2CCCC2)o1 (centres undefined),> 501 µM,101 µM
O=C(Cn1cnnn1)NCC1(c2ccccc2)CCC1,> 501 µM,304 µM
CC(=O)c1ccc(NCC(=O)NC(C)C(C)C)cc1 (centres undefined),182 µM,182 µM
CCCn1c(O)nnc1SCc1cccc(OC)n1,436 µM,256 µM
O=C(NCc1ccco1)N1CCN(Cc2ccc3c(c2)CCO3)CC1,5.53 µM,11.4 µM
CCN(C)Cc1nc(-c2ccccc2NS(C)(=O)=O)oc1C,> 50.1 µM,> 50.1 µM
Cc1ccc(OC(C)CN)cc1 (centres undefined),166 µM,77 µM
CC1=CCN(C(=O)c2ccsc2)CC1,> 501 µM,160 µM
COc1ccc(C(=O)NCCSc2cnn[nH]2)cc1F,> 501 µM,> 501 µM
N#CC1(C(=O)NCCCNc2ccc(C(F)(F)F)cn2)CCCC1,1.69 µM,0.198 µM
COC(=O)CCCNc1ccc2c(c1)OCCO2,467 µM,140 µM
CCNc1ncc(C(=O)N2CCC(c3ccccc3C(=O)O)C2)cn1 (centres undefined),> 50.1 µM,> 50.1 µM
CN(Cc1cccn1C)C(=O)c1ccccc1F,262 µM,219 µM
O=C(CC1Sc2ccc(Cl)cc2NC1=O)OCCO (centres undefined),286 µM,222 µM
COCCC1CN(C(=O)c2ccc(C)c(F)c2)CCO1 (centres undefined),234 µM,257 µM
COCCC(=O)N1CCN(CC2CC2)c2ccccc21,> 50.1 µM,11.7 µM
CCc1nnc(NC(=O)N(CCOC)Cc2ccc(C)o2)s1,> 50.1 µM,> 50.1 µM
CC1=CC(=O)N(Cc2ccccc2)C1=O,81.5 µM,49.8 µM
CCCC(=O)N(CCCN1CCOCC1)c1nc2c(C)c(C)ccc2s1,> 50.1 µM,> 50.1 µM
O=C(CSCCO)Nc1ncc(-c2ccccc2)s1,272 µM,174 µM
COCCOC1CCN(c2cccc(C)n2)CC1,366 µM,245 µM

Compound,IC50 [1],IC50 [2]
CCSc1nc2ccccc2c(=O)n1CCCO,278 µM,181 µM
CCC(CNS(=O)(=O)N(C)CC)c1ccccc1 (centres undefined),> 501 µM,249 µM
COc1c(Br)cccc1CCNC(=O)c1csnn1,> 50.1 µM,> 50.1 µM
Cc1cccc(N2CCC3(CCCC(=O)N3)CC2)n1,> 50.1 µM,
CCOCc1nnc(NCc2ccsc2)o1,24.8 µM,
CCN(C(=O)CCCOC)C(c1ccc(Cl)cc1)c1ccccn1 (centres undefined),> 50.1 µM,
CN(C)c1ccc(CNC(=O)c2ccc(Cl)cc2F)cc1,> 50.1 µM,
CNS(=O)(=O)c1cccc(C(C)NCc2ccc(C)c(C)c2)c1 (centres undefined),> 50.1 µM,
CN1CCN(C(=O)c2cc3sccc3n2Cc2ccc(Cl)cc2)CC1,> 50.1 µM,
O=C(c1nn(-c2ccccc2F)cc1O)N1CCC2(CC1)OCCO2,> 50.1 µM,
Cc1cnn(-c2cccc(N3CCN(c4cc(C)nc(C)n4)CC3)n2)c1,> 50.1 µM,
N#Cc1csc(CNCCOc2ccccc2)c1,> 50.1 µM,
Cc1cccc(NCc2ncc(C(C)(C)C)o2)c1,12 µM,
CN(CCCOc1ccccc1)C(=O)c1csc(-c2nnc[nH]2)n1,> 50.1 µM,
CC(C)CCC(=O)NCC(=O)N1CCCCCC1c1ccco1 (centres undefined),6.55 µM,
Cn1ccc(CN2CCOCC23CCNCC3)n1,> 50.1 µM,
CC(C1CC1)N(C)Cc1nnc(-c2ccco2)o1 (centres undefined),> 50.1 µM,
CN1[C@H](CN2CCCC2)C[C@@H]2CN(C(=O)c3cccn3C)CC[C@@H]21,> 50.1 µM,
Cc1noc(C)c1-c1cccc(C2CN(CC(=O)N(C)C)CCO2)n1 (centres undefined),> 50.1 µM,
CO[C@H]1C[C@@H]2CN(C(=O)Cc3ccc(C)s3)C[C@@H]2C1,> 50.1 µM,

# Source: ChEMBL document CHEMBL3988442, “University of Dundee, Small-Polar-MMV Screening Library” (2021)
